{"source": "PubChem BioAssay AID2060890", "about": "(Molecular Pharmacology Branch, DTP, NCI, 2025)", "test_system": "LG0703-F948-PDC complex spheroid viability", "test": "Anticancer human tumor LG0703-F948-PDC patient-derived lung adenocarcinoma cell line growth inhibition [RAS]", "details": "for viability, T/C: stronger effect = lower value", "in_short": "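Multi-cell-type spheroids: tumor cells plus HUVEC endothelial cells and mesenchymal stem cells. RAS-pathway inhibitors were combined with targeted agents, each dosed in half-log steps down from clinical Cmax, or from 10 microM when Cmax was unknown.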", "data": [{"compound": "CC(=O)OC12COC1CC(O)C1(C)C(=O)C(O)C3=C(C)C(OC(=O)C(O)C(NC(=O)OC(C)(C)C)c4ccccc4)CC(O)(C(OC(=O)c4ccccc4)C21)C3(C)C", "note": "(centres undefined) + CCn1c(-c2cccnc2C(C)OC)c2c3cc(ccc31)N1CCOC(CC(NC(=O)C(C(C)C)N(C)C(=O)C3(F)CCN(C(=O)C#CC(C)(C)N(C)C)CC3)C(=O)N3CCCC(N3)C(=O)OCC(C)(C)C2)C1;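 note: spheroids exposed to agents for 7 days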;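 for viability, T/C: 100% = DMSO vehicle wells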", "values": [{"measurement": "IC50", "setting": "curve of first compound, second compound 0.000949 µM", "value": "< 31.6", "unit": "nM"}, {"measurement": "IC50", "setting": "curve of first compound, second compound 0.003 µM", "value": "< 31.6", "unit": "nM"}, {"measurement": "IC50", "setting": "curve of first compound, second compound 0.00949 µM", "value": "< 31.6", "unit": "nM"}, {"measurement": "IC50", "setting": "curve of first compound, second compound 0.03 µM", "value": "< 31.6", "unit": "nM"}, {"measurement": "IC50", "setting": "curve of first compound, second compound 0.0949 µM", "value": "< 31.6", "unit": "nM"}, {"measurement": "IC50", "setting": "curve of first compound, second compound 0.3 µM", "value": "< 31.6", "unit": "nM"}, {"measurement": "viability, T/C", "setting": "second compound 0.000949 µM, first compound 0.0316 µM", "value": 40.1, "unit": "%"}, {"measurement": "viability, T/C", "setting": "second compound 0.000949 µM, first compound 0.1 µM", "value": 36.8, "unit": "%"}, {"measurement": "viability, T/C", "setting": "second compound 0.000949 µM, first compound 0.316 µM", "value": 36.3, "unit": "%"}, {"measurement": "viability, T/C", "setting": "second compound 0.000949 µM, first compound 1 µM", "value": 39.4, "unit": "%"}, {"measurement": "viability, T/C", "setting": "second compound 0.000949 µM, first compound 3.16 µM", "value": 44.2, "unit": "%"}, {"measurement": "viability, T/C", "setting": "second compound 0.000949 µM, first compound 10 µM", "value": 41, "unit": "%"}, {"measurement": "viability, T/C", "setting": "second compound 0.003 µM, first compound 0.0316 µM", "value": 37.7, "unit": "%"}, {"measurement": "viability, T/C", "setting": "second compound 0.003 µM, first compound 0.1 µM", "value": 35.4, "unit": "%"}, {"measurement": "viability, T/C", "setting": "second compound 0.003 µM, first compound 0.316 µM", "value": 41.1, "unit": "%"}, {"measurement": "viability, T/C", "setting": "second compound 0.003 µM, first compound 1 µM", "value": 42.1, "unit": "%"}, {"measurement": "viability, T/C", "setting": "second compound 0.003 µM, first compound 3.16 µM", "value": 38.7, "unit": "%"}, {"measurement": "viability, T/C", "setting": "second compound 0.003 µM, first compound 10 µM", "value": 35.6, "unit": "%"}, {"measurement": "viability, T/C", "setting": "second compound 0.00949 µM, first compound 0.0316 µM", "value": 36.5, "unit": "%"}, {"measurement": "viability, T/C", "setting": "second compound 0.00949 µM, first compound 0.1 µM", "value": 36.7, "unit": "%"}, {"measurement": "viability, T/C", "setting": "second compound 0.00949 µM, first compound 0.316 µM", "value": 36.6, "unit": "%"}, {"measurement": "viability, T/C", "setting": "second compound 0.00949 µM, first compound 1 µM", "value": 40.9, "unit": "%"}, {"measurement": "viability, T/C", "setting": "second compound 0.00949 µM, first compound 3.16 µM", "value": 49.5, "unit": "%"}, {"measurement": "viability, T/C", "setting": "second compound 0.00949 µM, first compound 10 µM", "value": 46.9, "unit": "%"}, {"measurement": "viability, T/C", "setting": "second compound 0.03 µM, first compound 0.0316 µM", "value": 33.5, "unit": "%"}, {"measurement": "viability, T/C", "setting": "second compound 0.03 µM, first compound 0.1 µM", "value": 35.5, "unit": "%"}, {"measurement": "viability, T/C", "setting": "second compound 0.03 µM, first compound 0.316 µM", "value": 36.5, "unit": "%"}, {"measurement": "viability, T/C", "setting": "second compound 0.03 µM, first compound 1 µM", "value": 40.3, "unit": "%"}, {"measurement": "viability, T/C", "setting": "second compound 0.03 µM, first compound 3.16 µM", "value": 42.5, "unit": "%"}, {"measurement": "viability, T/C", "setting": "second compound 0.03 µM, first compound 10 µM", "value": 34, "unit": "%"}, {"measurement": "viability, T/C", "setting": "second compound 0.0949 µM, first compound 0.0316 µM", "value": 39, "unit": "%"}, {"measurement": "viability, T/C", "setting": "second compound 0.0949 µM, first compound 0.1 µM", "value": 32.7, "unit": "%"}, {"measurement": "viability, T/C", "setting": "second compound 0.0949 µM, first compound 0.316 µM", "value": 33.4, "unit": "%"}, {"measurement": "viability, T/C", "setting": "second compound 0.0949 µM, first compound 1 µM", "value": 34, "unit": "%"}, {"measurement": "viability, T/C", "setting": "second compound 0.0949 µM, first compound 3.16 µM", "value": 35.6, "unit": "%"}, {"measurement": "viability, T/C", "setting": "second compound 0.0949 µM, first compound 10 µM", "value": 37.1, "unit": "%"}, {"measurement": "viability, T/C", "setting": "second compound 0.3 µM, first compound 0.0316 µM", "value": 28.5, "unit": "%"}, {"measurement": "viability, T/C", "setting": "second compound 0.3 µM, first compound 0.1 µM", "value": 22.3, "unit": "%"}, {"measurement": "viability, T/C", "setting": "second compound 0.3 µM, first compound 0.316 µM", "value": 22.4, "unit": "%"}, {"measurement": "viability, T/C", "setting": "second compound 0.3 µM, first compound 1 µM", "value": 23.4, "unit": "%"}, {"measurement": "viability, T/C", "setting": "second compound 0.3 µM, first compound 3.16 µM", "value": 23.7, "unit": "%"}, {"measurement": "viability, T/C", "setting": "second compound 0.3 µM, first compound 10 µM", "value": 20.9, "unit": "%"}]}, {"compound": "C=CC(=O)N1CCN(c2nc(OCC3CCCN3C)nc3c(F)c(-c4nc(N)cc(C)c4C(F)(F)F)c(Cl)cc23)C(C)C1", "note": "(centres undefined)", "values": [{"measurement": "viability, T/C", "setting": "compound 0.01 µM", "value": "102% [middle of 11 runs]"}, {"measurement": "viability, T/C", "setting": "compound 0.1 µM", "value": "106% [middle of 11 runs]"}, {"measurement": "viability, T/C", "setting": "compound 1 µM", "value": "112% [middle of 11 runs]"}, {"measurement": "IC50", "setting": "compound alone, run of 09/09/2024", "value": "> 1000", "unit": "nM"}, {"measurement": "IC50", "setting": "curve of compound", "value": "> 1000", "unit": "nM"}]}, {"compound": "C[C@@H](NC(=O)c1ncnc(N)c1Cl)c1ncc(C(=O)Nc2cc(C(F)(F)F)c(Cl)cn2)s1", "note": "+ C#Cc1c(F)ccc2cc(O)cc(-c3ncc4c(N5CC6CCC(C5)N6)nc(OCC56CCCN5CC(F)C6)nc4c3F)c12", "values": [{"measurement": "IC50", "setting": "curve of first compound, second compound 0.0316 µM", "value": "> 10000", "unit": "nM"}, {"measurement": "IC50", "setting": "curve of first compound, second compound 0.1 µM", "value": "> 10000", "unit": "nM"}, {"measurement": "IC50", "setting": "curve of first compound, second compound 0.316 µM", "value": "> 10000", "unit": "nM"}, {"measurement": "IC50", "setting": "curve of first compound, second compound 1 µM", "value": "> 10000", "unit": "nM"}, {"measurement": "IC50", "setting": "curve of first compound, second compound 3.16 µM", "value": "> 10000", "unit": "nM"}, {"measurement": "IC50", "setting": "curve of first compound, second compound 10 µM", "value": "> 10000", "unit": "nM"}, {"measurement": "viability, T/C", "setting": "second compound 0.0316 µM, first compound 0.0316 µM", "value": 108, "unit": "%"}, {"measurement": "viability, T/C", "setting": "second compound 0.0316 µM, first compound 0.1 µM", "value": 92.3, "unit": "%"}, {"measurement": "viability, T/C", "setting": "second compound 0.0316 µM, first compound 0.316 µM", "value": 101, "unit": "%"}, {"measurement": "viability, T/C", "setting": "second compound 0.0316 µM, first compound 1 µM", "value": 96.7, "unit": "%"}, {"measurement": "viability, T/C", "setting": "second compound 0.0316 µM, first compound 3.16 µM", "value": 103, "unit": "%"}, {"measurement": "viability, T/C", "setting": "second compound 0.0316 µM, first compound 10 µM", "value": 104, "unit": "%"}, {"measurement": "viability, T/C", "setting": "second compound 0.1 µM, first compound 0.0316 µM", "value": 87.5, "unit": "%"}, {"measurement": "viability, T/C", "setting": "second compound 0.1 µM, first compound 0.1 µM", "value": 87.6, "unit": "%"}, {"measurement": "viability, T/C", "setting": "second compound 0.1 µM, first compound 0.316 µM", "value": 98.3, "unit": "%"}, {"measurement": "viability, T/C", "setting": "second compound 0.1 µM, first compound 1 µM", "value": 103, "unit": "%"}, {"measurement": "viability, T/C", "setting": "second compound 0.1 µM, first compound 3.16 µM", "value": 104, "unit": "%"}, {"measurement": "viability, T/C", "setting": "second compound 0.1 µM, first compound 10 µM", "value": 98.3, "unit": "%"}, {"measurement": "viability, T/C", "setting": "second compound 0.316 µM, first compound 0.0316 µM", "value": 85.8, "unit": "%"}, {"measurement": "viability, T/C", "setting": "second compound 0.316 µM, first compound 0.1 µM", "value": 76.6, "unit": "%"}, {"measurement": "viability, T/C", "setting": "second compound 0.316 µM, first compound 0.316 µM", "value": 87.3, "unit": "%"}, {"measurement": "viability, T/C", "setting": "second compound 0.316 µM, first compound 1 µM", "value": 95.4, "unit": "%"}, {"measurement": "viability, T/C", "setting": "second compound 0.316 µM, first compound 3.16 µM", "value": 109, "unit": "%"}, {"measurement": "viability, T/C", "setting": "second compound 0.316 µM, first compound 10 µM", "value": 99, "unit": "%"}, {"measurement": "viability, T/C", "setting": "second compound 1 µM, first compound 0.0316 µM", "value": 86.7, "unit": "%"}, {"measurement": "viability, T/C", "setting": "second compound 1 µM, first compound 0.1 µM", "value": 74.1, "unit": "%"}, {"measurement": "viability, T/C", "setting": "second compound 1 µM, first compound 0.316 µM", "value": 64.3, "unit": "%"}, {"measurement": "viability, T/C", "setting": "second compound 1 µM, first compound 1 µM", "value": 83.5, "unit": "%"}, {"measurement": "viability, T/C", "setting": "second compound 1 µM, first compound 3.16 µM", "value": 73.5, "unit": "%"}, {"measurement": "viability, T/C", "setting": "second compound 1 µM, first compound 10 µM", "value": 80, "unit": "%"}, {"measurement": "viability, T/C", "setting": "second compound 3.16 µM, first compound 0.0316 µM", "value": 63.1, "unit": "%"}, {"measurement": "viability, T/C", "setting": "second compound 3.16 µM, first compound 0.1 µM", "value": 66.3, "unit": "%"}, {"measurement": "viability, T/C", "setting": "second compound 3.16 µM, first compound 0.316 µM", "value": 58.6, "unit": "%"}, {"measurement": "viability, T/C", "setting": "second compound 3.16 µM, first compound 1 µM", "value": 68, "unit": "%"}, {"measurement": "viability, T/C", "setting": "second compound 3.16 µM, first compound 3.16 µM", "value": 65.4, "unit": "%"}, {"measurement": "viability, T/C", "setting": "second compound 3.16 µM, first compound 10 µM", "value": 66.6, "unit": "%"}, {"measurement": "viability, T/C", "setting": "second compound 10 µM, first compound 0.0316 µM", "value": 56.8, "unit": "%"}, {"measurement": "viability, T/C", "setting": "second compound 10 µM, first compound 0.1 µM", "value": 60.5, "unit": "%"}, {"measurement": "viability, T/C", "setting": "second compound 10 µM, first compound 0.316 µM", "value": 56.4, "unit": "%"}, {"measurement": "viability, T/C", "setting": "second compound 10 µM, first compound 1 µM", "value": 56.1, "unit": "%"}, {"measurement": "viability, T/C", "setting": "second compound 10 µM, first compound 3.16 µM", "value": 70.9, "unit": "%"}, {"measurement": "viability, T/C", "setting": "second compound 10 µM, first compound 10 µM", "value": 39.5, "unit": "%"}]}]}
